# Target: T1, androgen receptor (AR) (Homo sapiens, UniProt P10275)
# T1 sequence (P10275 1-920): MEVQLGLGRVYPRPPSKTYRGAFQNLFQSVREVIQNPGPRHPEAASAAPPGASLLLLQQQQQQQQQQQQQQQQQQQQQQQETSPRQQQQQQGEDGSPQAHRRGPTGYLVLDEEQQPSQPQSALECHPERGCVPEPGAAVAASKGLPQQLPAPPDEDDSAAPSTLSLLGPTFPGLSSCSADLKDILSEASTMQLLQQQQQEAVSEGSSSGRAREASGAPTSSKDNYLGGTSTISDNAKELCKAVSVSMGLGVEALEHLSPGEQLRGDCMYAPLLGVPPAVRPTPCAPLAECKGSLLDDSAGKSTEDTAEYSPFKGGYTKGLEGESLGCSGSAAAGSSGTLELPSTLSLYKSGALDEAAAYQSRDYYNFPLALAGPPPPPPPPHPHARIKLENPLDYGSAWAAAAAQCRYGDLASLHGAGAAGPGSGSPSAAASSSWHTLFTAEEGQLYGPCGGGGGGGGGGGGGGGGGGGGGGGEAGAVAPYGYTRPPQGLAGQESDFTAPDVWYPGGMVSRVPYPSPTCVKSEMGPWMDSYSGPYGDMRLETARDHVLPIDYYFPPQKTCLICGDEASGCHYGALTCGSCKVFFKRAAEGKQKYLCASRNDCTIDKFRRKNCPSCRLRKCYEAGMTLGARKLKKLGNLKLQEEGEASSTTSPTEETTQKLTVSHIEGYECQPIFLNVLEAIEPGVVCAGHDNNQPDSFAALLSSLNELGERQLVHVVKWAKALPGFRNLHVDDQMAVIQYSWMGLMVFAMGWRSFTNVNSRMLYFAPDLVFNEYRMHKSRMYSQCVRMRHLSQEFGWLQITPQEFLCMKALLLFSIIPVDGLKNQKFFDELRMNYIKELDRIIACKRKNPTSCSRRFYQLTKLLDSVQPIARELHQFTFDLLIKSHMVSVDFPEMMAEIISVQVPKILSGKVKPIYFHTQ
# Assay: Agonistic effect of test compounds on androgen receptor (AR), LiveBLAzer FRET reporter cell assay
# Format: cell-based
# Experimental: Experimental Embodiment 1: Agonistic Effect of Test Compounds on Androgen Receptor (AR)
# 1. Preparation of Compounds, Placing in Plates:
# 1.1 Preparation of compounds: the test compounds were diluted to the working concentration, and each compound was diluted by 4 times with Echo for 10 concentration gradients, and the compounds were added to a 384-well cell plate according to the microplate layout diagram, with 200 nL per well;
# 1.2 AR cell assay medium: 87% Opti-MEM (reduced serum medium), 10% Dialyzed FBS (dialyzed fetal bovine serum), 1% NEAA (non-essential amino acids), 1% sodium pyruvate and 1% penicillin-streptomycin;
# 1.3 culture medium, trypsin and Dulbecco's phosphate buffer were preheated in a 37° C. water bath;
# 1.4 the original medium in the cell culture flask was removed, and the cells were washed once with 6 mL of Dulbecco's phosphate buffer;
# 1.5 3.5 mL of trypsin was added to the cell culture flask, and the flask was gently shaken to make the trypsin fully contact with the cells, the trypsin was removed; after aspirating the trypsin, the culture flask was placed in a 37° C. incubator containing 5% CO2 for about 1 minute;
# 1.6 the cells were resuspended with 10 mL of cell detection medium, and about 0.8 mL of cell suspension was taken out for counting (ViCell XR)
# 1.7 the cell suspension was diluted with culture medium to 2.5×10^5 cells per mL;
# 1.8 40 !IL of cell suspension was added to each well of the cell plate, and 40 μL of cell culture medium was added to the other wells, and the cells were incubated in a 37° C. incubator containing 5% CO2 for 16 hours.
# 2. Reading the Board and Analyzing Data:
# 2.1 Preparation of solution A: 182 μL of DMSO was added to 200 μg of LiveBLAzer™-FRET B/G/g substrate (CCF4-AM). The solution A was packaged and stored in a refrigerator at −20° C.;
# 2.2 preparation of 6×substrate buffer: 15 μL of solution A was added to 150 μL of solution B, and the mixture was vortexed evenly, then 2335 μL of solution C was added to the above solution and vortexed evenly;
# 2.3 the cell culture plate was taken out, and 8μL of 6×substrate buffer was added to each well, shaken for 1 minute, and centrifuged at 1000 rpm for 10 seconds; after sealing the membrane, the cells were incubated at 23° C. for 2 hours, and the plate was read with Envision, and the curve EC50 value was fitted by Prism software.
structure (smiles),measurement,value
"N#Cc1ccc(N2CC3CC3C2C(O)C(F)(F)F)cc1Cl (single isomer, unassigned) [Compound 3A]",EC50,0.81 nM

# Source: patent US20230012570A1, “BICYCLIC COMPOUND USED AS SELECTIVE ANDROGEN RECEPTOR MODULATOR” (MEDSHINE DISCOVERY INC., priority 2019, published 2023)
